Assay results from US20220213070A1, “COMPOUNDS INHIBITING TDG ACTIVITY” (EPITAS BIOSCIENCES (SHANGHAI) CO., LTD., priority 2019, published 2022).

Experiments:
[1] = system: Lung cancer cell line Calu-1; test: Inhibition of the growth of Calu-1 cells (CellTiter-Glo, 72 hours); assay type: cell-based; conditions: Homo sapiens, 72 hours of culturing, read-out: Inhibitory activity on alu-1 cell growth IC50
Description: 14.2 Experimental Determination of Compound's Inhibitory Rate on the Growth of Calu-1 Cells
Lung cancer cell line Calu-1 was cultured in 90% McCoy's 5A medium (BI, 01-075-1ACS)+10% fetal bovine serum (Gibco, 10270106), placed in a CO2 incubator (37° C., 5% CO2, 95% air) for culturing. Calu-1 cells were digested with trypsin (Gibco, 12604-021) and seeded in a 384-well plate at a density of 500 cells per well. The medium was 50 μL and it was cultured overnight at 37° C. in an incubator. On the next day, different concentrations of test compounds were added, and the final concentration of DMSO was 0.1%. After 72 hours of culturing, the cells were taken out for test. The cell culture medium from the 384-well plate to be tested was removed, and fresh culture medium premixed with CTG was immediately added: the ratio of the culture medium to CellTiter-Glo® 2.0 reagent (Promega, G9243) was 2:1, 30 ul was added to each well. The plate was shaken at room temperature for 20 minutes, and then a multi-function plate reader (TECAN, Infinite 200 Pro) was used according to the reagent instructions to determine the cell survival.
According to the biological method described in this example, the selected compounds of the present invention were analyzed, and the results are shown in Table 1. Among them, “++” in Table 1 refers to the inhibitory activity on the growth of calu-1 cells with IC50≤5 μM; “+” refers to the inhibitory activity on the growth of calu-1 cells with IC50>5 μM.

TDG [2] = target: T1, TDG (Homo sapiens, UniProt Q13569); test: TDG inhibitory activity of compounds in cells (caC-cmv-firefly luciferase reporter, HEK 293T TDG KO cells transfected with pCDNA4-TDG); assay type: cell-based; conditions: read-out: Inhibition rate on TDG activity
Description: Experimental Determination of TDG Inhibitory Activity of Compounds in Cells
The operation steps of this example are as follows:
(1) Preparation of Methylation Reporter Plasmid:
(a) SAM with a stock solution concentration of 32 mM was diluted with ultrapure water to 1600 μM;
(b) The reaction system was prepared according to the following ratio: 30 μl ultrapure water, 5 μl 10×NEBuffer 2, 5 μl diluted SAM, 1 μg pCpGL-CMV-firefly plasmid, 1 μl SssI methylase (4 U/μl); 50 μl in total, the reaction was carried out at 37° C. for 2 hours;
(c) The mixture was heated at 65° C. for 20 minutes. Then 0.2% SDS was added, the reaction was carried out at 80° C. for 10 min; and then 1 μl Proteinase K was added, the reaction was carried out at 50° C. for 1 h;
(d) The methylated plasmid was recovered with Dr. GenTLE® sedimentation aid (TAKARA).
(2) Preparation of 5fC/5caC pCpGL-CMV-Firefly Reporter Plasmid
(a) The following 10× reaction system was prepared:
(b) The reaction system was prepared according to the following ratio:
(c) The reaction was carried out at 37° C. for one hour;
(d) 24 μg Tet1 protein was added for the second time and the reaction was continued for one hour;
(e) SDS was added to a final concentration of 0.5%, 80° C., 10 minutes, then 1 μl Proteinase K was added, 55° C. overnight.
(f) The treated caC-cmv-firefly plasmid was recovered with Dr. GenTLE® sedimentation aid (TAKARA) and was quantified.
(3) Using the Luciferase Activity Assay Method to Detect the Inhibitory Rate of Small Molecule Compounds on Intracellular TDG Enzyme Activity
In a 96-well plate, the reaction system and operation flow of each well were as follows:
(a) 1 ng caC-cmv-firefly, Ing pCpGL-CMV-Relina and 150 ng pCDNA4-TDG or 150 ng pCDNA4-myc plasmid, were diluted to 75 ul Opti-MEM, mixed well and allowed to stand still for 5 minutes;
(b) 2 ul transfection reagent (Hieff Trans™ Liposomal transfection Reagent (0.5 ul/well, YEAEEN, Cat #40802)) was diluted in 100 ul Opti-MEM, mixed well and allowed to stand still for 5 minutes;
(c) 75 ul of (a) and (b) were mixed respectively, and allowed to stand still at room temperature for 20 minutes;
(d) HEK 293T TDG KO cells were digested with trypsin, the cells were collected and counted, and the suspension cell concentration was adjusted to 4×10^5/ml;
(e) 50 ul of the mixture (c) was added to each well, and at the same time 100 ul of the diluted cell suspension was added to the same well, and they were mixed well.
(f) After the cells adhering to the wall, different concentrations of small molecule compounds to be tested were added to each well.
(g) Incubation was performed in a 37° C. CO2 incubator for 72 hours. The supernatant was removed and the cells were quickly freezed at −80° C.
(h) Before detecting the luciferase activity, the cells to be tested were removed from −80° C. and allowed to stand still at room temperature for 30 minutes. Following the instructions of Dual-Glo® Luciferase Reagent (PROMEGA), the firefly fluorescence value and Renilla fluorescence value of each well were detected.
(i) The firefly fluorescence value was divided with the Renilla fluorescence value of each well; 96-well plate Z′ and experimental window was calculated by the ratio of transfected caC-cmv-firefly, pCpGL-CMV-Relina, pCDNA4-TDG plasmid mixture plus DMSO experimental group to transfected caC-cmv-firefly, pCpGL-CMV-Relina, pCDNA4-myc plasmid mixture plus DMSO experimental group, and the relative enzyme activity inhibition rate of each compound was calculated.
According to the biological method described in this example, the selected compounds of the present invention were analyzed, and the results are shown in Table 2. Among them, “+” in Table 2 refers to the compound's TDG inhibitory activity at a concentration of 10 μM≤25%; “++” refers to the compound's TDG inhibitory activity at a concentration of 10 μM>25%.

TDG [3] = target: T1, TDG; test: Inhibition of TDG mismatch repair activity (fluorescent G·U double-stranded DNA probe T1-T2); assay type: biochemical; conditions: TDG 100 nM/L, preincubated with compound 37° C. 30 minutes; probe 30 nM; read-out: Inhibitory activity on TDG mismatch repair IC50
Source text: 14.1 Experimental Determination of Compound's Inhibitory Rate on TDG Mismatch Repair Activity
(1) A double-stranded DNA probe T1-T2 containing uracil bases was synthesized. The nucleotide sequence of the T1 chain was: 5′-FAM-TAAUGTGAATGGAGCTGAAAT-biotin-3′; The nucleotide sequence of the T2 chain was 5′-ATTTCAGCTCCATTCACGTTA-3′. Using PCR annealing program, the T1 strand and T2 strand were complementary to form a double-stranded DNA probe T1-T2.
(2) The reaction system and steps for each well of a 96-well plate were as follows: a. TDG (100 nM/L) was mixed with different concentrations of compounds, and the mixture was incubated at 37° C. for 30 minutes. The composition of the reaction buffer was: 20 mM HEPES pH7.5, 100 mM NaCl, 0.2 mM EDTA, 2.5 mM MgCl2; b. The double-stranded DNA probe T1-T2 was added to the mixture to obtain a final volume of 100 μL, with a concentration of 30 nM, and the mixture was incubated at 25° C. for 30 min; c. 1 μL of streptavidin magnetic beads were added to the reaction solution and fully bound the biotin-labeled DNA for 1 hour; d. NaOH was added to the reaction solution to a final concentration of 200 mM, and the mixture was incubated at room temperature for 30 minutes; e. Under the action of a magnetic stand the streptavidin magnetic beads were adsorbed to the tube wall, the supernatant was transferred to a new 96-well plate, and placed in a Tecan microplate reader for fluorescence measurement. The parameter settings were: excitation wavelength 485 nm; emission wavelength 520 nm. A linear curve between fluorescence intensity and TDG concentration was constructed, R^2=0.9968, and the linear range was 0-50 nM/L;
According to the biological method described in this example, the selected compounds of the present invention were analyzed, and the results are shown in Table 1. Among them, “++” in Table 1 refers to the inhibitory activity for TDG mismatch repair with IC50≤5 μM; “+” refers to the inhibitory activity for TDG mismatch repair with IC50>5 μM.

T1 sequence (Q13569 whole entry): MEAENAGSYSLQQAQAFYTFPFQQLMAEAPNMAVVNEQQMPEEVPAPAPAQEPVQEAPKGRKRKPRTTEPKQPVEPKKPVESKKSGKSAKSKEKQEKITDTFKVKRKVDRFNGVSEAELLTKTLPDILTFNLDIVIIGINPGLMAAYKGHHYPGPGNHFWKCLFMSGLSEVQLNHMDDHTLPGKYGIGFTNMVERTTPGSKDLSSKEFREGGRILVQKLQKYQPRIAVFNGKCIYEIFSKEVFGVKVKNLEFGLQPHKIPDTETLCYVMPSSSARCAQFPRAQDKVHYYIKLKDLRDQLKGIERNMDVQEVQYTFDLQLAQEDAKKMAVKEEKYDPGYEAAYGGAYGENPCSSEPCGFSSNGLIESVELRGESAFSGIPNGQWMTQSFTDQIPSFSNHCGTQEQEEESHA

O=C(CCN1Cc2ccccc2C1)c1ccc2c(c1)OCCO2 [Compound 1, 1-(2,3-dihydrobenzo[b][1,4]dioxin-6-yl)-3-(isoindolin-2-yl)propan-1-one] was tested, and the IC50 [1] was ≤ 5 µM, the inhibition at 10 µM (TDG [2]) was > 25% and the IC50 (TDG [3]) was ≤ 5 µM.
With O=C(CCN1Cc2ccc([N+](=O)[O-])cc2C1)c1ccc2c(c1)OCCO2 [Compound 2, 1-(2,3-dihydrobenzo[b][1,4]dioxin-6-yl)-3-(5-nitroisoindo1-2-yl)propan-1-one] the IC50 [1] was ≤ 5 µM, the inhibition at 10 µM (TDG [2]) was < 25% and the IC50 (TDG [3]) was ≤ 5 µM.
For O=C(CCN1Cc2ccc(Br)cc2C1)c1ccc2c(c1)OCCO2 [Compound 3, 3-(5-bromoisoindolin-2-yl)-1-(2,3-dihydrobenzo[b][1,4]dioxin-6-yl)propan-1-one], the IC50 [1] was > 5 µM, the inhibition at 10 µM (TDG [2]) was < 25% and the IC50 (TDG [3]) was ≤ 5 µM.
O=C(CCN1Cc2ccc(Cl)cc2C1)c1ccc2c(c1)OCCO2 [Compound 4, 3-(5-chloroisoindolin-2-yl)-1-(2,3-dihydrobenzo[b][1,4]dioxin-6-yl)propan-1-one] was tested, and the IC50 [1] was > 5 µM, the inhibition at 10 µM (TDG [2]) was < 25% and the IC50 (TDG [3]) was ≤ 5 µM.
With COc1ccc2c(c1)CN(CCC(=O)c1ccc3c(c1)OCCO3)C2 [Compound 5, 1-(2,3-dihydrobenzo[b][1,4]dioxin-6-yl)-3-(5-methoxyisoindolin-2-yl)propan-1-one] the IC50 [1] was ≤ 5 µM, the inhibition at 10 µM (TDG [2]) was < 25% and the IC50 (TDG [3]) was ≤ 5 µM.
With O=C(CCN1Cc2ccc(F)cc2C1)c1ccc2c(c1)OCCO2 [Compound 6, 1-(2,3-dihydrobenzo[b][1,4]dioxin-6-yl)-3-(5-fluoroiso-2-yl)propan-1-one] the IC50 [1] was > 5 µM, the inhibition at 10 µM (TDG [2]) was < 25% and the IC50 (TDG [3]) was ≤ 5 µM.
With CC(=O)c1ccc2c(c1)CN(CCC(=O)c1ccc3c(c1)OCCO3)C2 [Compound 7, 3-(5-acetylisoindolin-2-yl)-1-(2,3-dihydrobenzo[b][1,4]dioxin-6-yl)propan-1-one] the IC50 [1] was > 5 µM, the inhibition at 10 µM (TDG [2]) was < 25% and the IC50 (TDG [3]) was ≤ 5 µM.
In the case of N#Cc1ccc2c(c1)CN(CCC(=O)c1ccc3c(c1)OCCO3)C2 [Compound 8], the IC50 [1] is reported as > 5 µM, the inhibition at 10 µM (TDG [2]) is reported as < 25% and the IC50 (TDG [3]) is reported as ≤ 5 µM.
In the case of Nc1ccc2c(c1)CN(CCC(=O)c1ccc3c(c1)OCCO3)C2 [Compound 9, 3-(5-aminoisoindolin-2-yl)-1-(2,3-dihydrobenzo[b][1,4]dioxin-6-yl)propan-1-one], the IC50 [1] is reported as ≤ 5 µM, the inhibition at 10 µM (TDG [2]) is reported as > 25% and the IC50 (TDG [3]) is reported as ≤ 5 µM.
In the case of OC(CCN1Cc2ccccc2C1)c1ccc2c(c1)OCCO2 (centres unmarked) [Compound 10, 1-(2,3-dihydrobenzo[b][1,4]dioxin-6-yl)-3-(isoindolin-2-yl)propan-1-ol], the IC50 [1] is reported as > 5 µM, the inhibition at 10 µM (TDG [2]) is reported as < 25% and the IC50 (TDG [3]) is reported as > 5 µM.
O=C(CCN1CCc2ccccc21)c1ccc2c(c1)OCCO2 [Compound 11, 1-(2,3-dihydrobenzo[b][1,4]dioxin-6-yl)-3-(indoline-1-yl)propan-1-one] was tested, and the IC50 [1] was > 5 µM, the inhibition at 10 µM (TDG [2]) was < 25% and the IC50 (TDG [3]) was > 5 µM.
O=C(CCN1C(=O)c2ccccc2C1=O)c1ccc2c(c1)OCCO2 [Compound 12, 2-(3-(2,3-dihydrobenzo[b][1,4]dioxin-6-yl)-3-oxopropyl)isoindole-1,3-dione] was tested, and the IC50 [1] was > 5 µM, the inhibition at 10 µM (TDG [2]) was < 25% and the IC50 (TDG [3]) was > 5 µM.
O=C(CCN1CCc2ccccc2C1)c1ccc2c(c1)OCCO2 [Compound 13, 1-(2,3-dihydrobenzo[b][1,4]dioxin-6-yl)-3-(3,4-dihydroisoquinoline-2(1H)-yl)propan-1-one] was tested, and the IC50 [1] was ≤ 5 µM, the inhibition at 10 µM (TDG [2]) was < 25% and the IC50 (TDG [3]) was ≤ 5 µM.
With O=C(CCN1CCCc2ccccc21)c1ccc2c(c1)OCCO2 [Compound 14, 1-(2,3-dihydrobenzo[b][1,4]dioxin-6-yl)-3-(3,4-dihydrouinoline-1(2H)-yl)propan-1-one] the IC50 [1] was > 5 µM, the inhibition at 10 µM (TDG [2]) was < 25% and the IC50 (TDG [3]) was > 5 µM.
O=C(CCN1CCOc2ccccc21)c1ccc2c(c1)OCCO2 [Compound 15, 3-(2,3-dihydro-4H-benzo[b][1,4]oxazin-4-yl)-1-(2,3-dihydrobenzo[b][1,4]dioxin-6-yl)propan-1-one] was tested, and the IC50 [1] was > 5 µM, the inhibition at 10 µM (TDG [2]) was < 25% and the IC50 (TDG [3]) was > 5 µM.
For O=C(CCN1CCCC1)c1ccc2c(c1)OCCO2 [Compound 16, 1-(2,3-dihydrobenzo[b][1,4]dioxin-6-yl)-3-(pyrrolidin-1-yl)propan-1-one], the IC50 [1] was > 5 µM, the inhibition at 10 µM (TDG [2]) was < 25% and the IC50 (TDG [3]) was ≤ 5 µM.
O=C1CCN(CCC(=O)c2ccc3c(c2)OCCO3)C1 [Compound 17, 1-(3-(2,3-dihydrobenzo[b][1,4]dioxin-6-yl)-3-oxopropyl)pyrrolidin-3-one] was tested, and the IC50 [1] was > 5 µM, the inhibition at 10 µM (TDG [2]) was < 25% and the IC50 (TDG [3]) was ≤ 5 µM.
Cc1ccc(C2CCN(CCC(=O)c3ccc4c(c3)OCCO4)C2)cc1 (centres unmarked) [Compound 48, 1-(2,3-dihydrobenzo[b][1,4]dioxin-6-yl)-3-(3-(p-tolyl)pyrrolidin-1-yl)propan-1-one] was tested, and the IC50 [1] was ≤ 5 µM and the IC50 (TDG [3]) was ≤ 5 µM.
